Experimental data: patent US20240398772A1, “OXASPIRO DERIVATIVE, AND PREPARATION METHOD THEREFOR AND USE THEREOF” (SHUJING BIOPHARMA CO., LTD, priority 2021, published 2024)

How the values were obtained:
MOR = biological target: T1, MOR (Homo sapiens, UniProt P35372); assay: Agonist test on MOR, cAMP level (CHO-K1/OP3 cells, cAMP assay kit); assay type: cell-based; conditions: for EC50: forskolin-stimulated cAMP, read-out: EC50 agonizing MOR receptor to affect cAMP level; for Emax: maximal effect of DAMGO is 100%, read-out: Emax agonizing MOR receptor to affect cAMP level
T1 construct: expressed in transfected cells; host or cells: CHO-K1/OP3 (name from the earlier reading)
Description: 5×stimulation buffer was diluted to 1× with ddH2O, an appropriate amount of 500 mM IBMX (generally, the IBMX stock solution was prepared to be 500 mM, namely 1000×) was added to enable the final concentration of the IBMX to be 0.5 mM, and the mixture was mixed well for later use (after the IBMX was added, that precipitation occurred was normal, and the precipitate was dissolved by well mixing). It must be prepared right before use.
1.3.1.2 IBMX was dissolved with DMSO to prepare a 500 mM stock solution, which was aliquoted into 20 μL/tube and cryopreserved at −80° C. to avoid repetition of freezing and thawing.
1.3.1.3 Forskolin was dissolved with DMSO to prepare a 10 mM stock solution, which was aliquoted into 20 μL/tube and cryopreserved at −20° C. for later use.
The CAMP standard substance in the kit returned to room temperature, and an equivalent amount of the experimental buffer was added according to the volume marked on the bottle label. The mixture was vortexed for mixing, aliquoted according to 50 μL/tube, and cryopreserved at −20° C. for later use.
5 mL ddH2O was added to a bottle of cAMP-d2 and a bottle of anti-cAMP-cryptate lyophilized powder, respectively, and the mixture was mixed well by gently turning the mixture upside down, aliquoted according to 125, 62.5, and 30 μL, and the like, and cryopreserved in the dark at −80° C.
1.3.2.1 Positive compound DAMGO and the test compound were serially diluted 4-fold to obtain 10 concentrations with Bravo using experimental buffer in a compound plate (Greiner-781280) at a starting concentration of 2 μM (from DMSO stock solution diluted with experimental buffer) and 20 μM (from DMSO stock solution diluted with experimental buffer), respectively.
1.3.2.2 Cells cryopreserved were thawed in a water bath at 37° C., the cell suspension was added to a centrifuge tube containing 10 mL of HBSS buffer, and the mixture was centrifuged at 750 rpm for 5 min. The supernatant was discarded, the pellet was resuspended in an appropriate amount of experimental buffer, and 20 μL of the pellet was counted using a cell counter. An appropriate amount of the cell suspension was diluted to 0.4×10^6 cells/mL, and 5 μL of the cell suspension was added to each well of a cell plate (the cell density was 2000 cells/well) and centrifuged at 1000 rpm for 1 min. 5 μL of the diluted compound was transferred to a cell plate (PerkinElmer-6008280) with Bravo, 5 μL of 2 μM DAMGO (the final concentration was 1 μM) was transferred to positive control wells, and an equal volume of experimental buffer was transferred to negative control wells, and the cell plate was centrifuged at 1000 rpm for 1 min. The cell plate was sealed and incubated at room temperature for 15 min. Forskolin was diluted to 0.2 mM with DMSO, 25.1 nL of which was transferred to a cell plate with Tecan-D300e, and the plate was centrifuged at 1000 rpm for 1 min, sealed, and incubated at room temperature for 45 min.
The final concentration of the initial point was 712 nM.
1.3.2.4 Preparation of detection reagent: an appropriate amount of a cAMP-d2 stock solution and an anti-cAMP-cryptate stock solution was diluted with a lysis buffer according to the ratio of 1:20, the two solutions were then mixed well by turning the solutions upside down according to the ratio of 1:1, and vortexing was prohibited. 10 μL of the prepared detection reagent was added to a cell plate and centrifuged at 1000 rpm for 1 min. The cell plate was incubated at room temperature for 1 h in the dark. After the cell plate was centrifuged at 1000 rpm for 1 min, the plate was read using Envision. Excitation light at 340 nm, emission light at 620 nm and 665 nm.
The formula for calculating the compound activation rate in the agonist test: […]

[1] = tested on: pain threshold of a mouse; assay: Mouse thermal radiation tail-flick method; assay type: in vivo, ICR mice; conditions: for Maximum analgesic percentage (% MPE): ICR mice, intragastric 10 mg/kg, Mean ± SEM, n = 9-10
Description: • Intragastric administration at a dose of 10 mg/kg;
ICR mice (normal grade, weighed 25-35 g, purchased from Shanghai Slac Laboratory Animal Co., Ltd.) were first mounted in a special plastic cylinder, their tails were exposed and allowed to droop naturally, and the measurements were made after the animals were calm. The radiation heat source could be an 8.75 mm projection lamp (32 W, adjustable). A light beam with the diameter of about 4 mm was emitted after being focused by a lens, which irradiated the skin at the junction of the middle third and the lower third of the tail (the light source and the skin at the tail must be closely attached); an electronic timer connected with the light source in parallel was used to synchronously record the irradiation duration, that is, when the irradiation started, a stopwatch was automatically started at the same time. When the tail of the animal obviously evaded, the timing was automatically stopped. The measured time interval was the tail flick latency. Mice with tail flick latency of 2-6 seconds were screened to participate in a grouping administration experiment. […] After a dose of a drug was administered to the mice, the pain threshold of the mice was measured at different times.
After a dose of a drug was administered to the mice, the pain threshold of the mice was measured at 0.5 h, 1 h, 2 h, and 3 h (effect view of the analgesic effect is shown in FIG. 1). The formula for calculating the maximum analgesic percentage (% MPE) after administration was as follows: % MPE=(post-administration pain threshold−pre-administration pain threshold)/(15−pre-administration pain threshold)×100%.

T1 sequence (P35372 whole entry): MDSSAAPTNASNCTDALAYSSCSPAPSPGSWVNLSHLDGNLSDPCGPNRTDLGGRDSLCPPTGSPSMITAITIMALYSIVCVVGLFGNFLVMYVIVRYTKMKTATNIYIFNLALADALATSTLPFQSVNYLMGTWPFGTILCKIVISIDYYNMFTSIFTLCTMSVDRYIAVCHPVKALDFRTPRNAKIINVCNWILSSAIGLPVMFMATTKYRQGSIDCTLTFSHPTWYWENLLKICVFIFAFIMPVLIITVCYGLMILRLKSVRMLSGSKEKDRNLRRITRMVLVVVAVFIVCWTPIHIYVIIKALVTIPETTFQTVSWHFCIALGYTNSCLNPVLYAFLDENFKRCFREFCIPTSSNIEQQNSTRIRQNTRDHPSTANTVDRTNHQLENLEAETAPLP

Structure (SMILES)	EC50 (MOR) [nM]	Emax (MOR) [%]	other results
Fc1ccc([C@]2(CCN[C@H]3Cc4cccc(Br)c4C3)CCOC3(CCOCC3)C2)nc1 [Compound 10-1-1, (S)-4-bromo-N-(2-((R)-4-(5-fluoropyridin-2-yl)-1,9-dioxaspiro[5.5]undecan-4-yl)ethyl)-2,3-dihydro-1H-inden-2-amine]	0.8	104	
Fc1ccc(C2(CCNCc3cccc(Cl)c3F)CCOC3(CCOCC3)C2)nc1 (stereo not shown) [Compound 14, N-(3-chloro-2-fluorobenzyl)-2-(4-(5-fluoropyridin-2-yl)-1,9-dioxaspiro[5.5]undecan-4-yl)ethan-1-amine]	24.2	88.1	
Fc1ccc(C2(CCNCc3cccc(Cl)c3Cl)CCOC3(CCOCC3)C2)nc1 (stereo not shown) [Compound 13, N-(2,3-dichlorobenzyl)-2-(4-(5-fluoropyridin-2-yl)-1,9-dioxaspiro[5.5]undecan-4-yl)ethan-1-amine]	17.3	78.9	
Fc1ccc(C2(CCN[C@H]3CCc4ccc(F)cc43)CCOC3(CCOCC3)C2)nc1 (stereo partly drawn) [Compound 1-1, (1S)-6-fluoro-N-(2-(4-(5-fluoropyridin-2-yl)-1,9-dioxaspiro[5.5]undecan-4-yl)ethyl)-2,3-dihydro-1H-inden-1-amine]	0.44	103	
Fc1ccc(C2(CCNC3Cc4cccc(Cl)c4C3)CCOC3(CCOCC3)C2)nc1 (stereo not shown) [Compound 17, 4-chloro-N-(2-(4-(5-fluoropyridin-2-yl)-1,9-dioxaspiro[5.5]undecan-4-yl)ethyl)-2,3-dihydro-1H-inden-2-amine]	2.14	93.8	
COc1ccc2c3c1O[C@H]1C(=O)CC[C@@]4(O)[C@@H](C2)N(C)CC[C@]314 [Oxycodone, reference compound]		95.2	Maximum analgesic percentage (% MPE) ([1]; 0.5 h after administration): 37.87 ± 12.44%; Maximum analgesic percentage (% MPE) ([1]; 2 h after administration): 3.63 ± 8.14%; Maximum analgesic percentage (% MPE) ([1]; 3 h after administration): −0.23 ± 6.48%
Fc1ccc(C2(CCNC3CCc4ccc(Cl)cc43)CCOC3(CCOCC3)C2)nc1 (stereo not shown) [Compound 4, 6-chloro-N-(2-(4-(5-fluoropyridin-2-yl)-1,9-dioxaspiro[5.5]undecan-4-yl)ethyl)-2,3-dihydro-1H-inden-1-amine]	2.19	103	
Cc1cccc2c1CC[C@@H]2NCCC1(c2ccc(F)cn2)CCOC2(CCOCC2)C1 (stereo partly drawn) [Compound 6-1, (1S)-N-(2-(4-(5-fluoropyridin-2-yl)-1,9-dioxaspiro[5.5]undecan-4-yl)ethyl)-4-methyl-2,3-dihydro-1H-inden-1-amine]	1.56	118	
Cc1c(Cl)cccc1CNCC[C@@]1(c2ccc(F)cn2)CCOC2(CCOCC2)C1 [Compound 12-1, (R)—N-(3-chloro-2-methylbenzyl)-2-(4-(5-fluoropyridin-2-yl)-1,9-dioxaspiro[5.5]undecan-4-yl)ethan-1-amine]	1.29	93.8	Maximum analgesic percentage (% MPE) ([1]; 0.5 h after administration): 99.48 ± 0.52 %; Maximum analgesic percentage (% MPE) ([1]; 1 h after administration): 86.20 ± 9.32 %; Maximum analgesic percentage (% MPE) ([1]; 2 h after administration): 89.98 ± 10.02 %; Maximum analgesic percentage (% MPE) ([1]; 3 h after administration): 78.89 ± 10.05 %; Maintenance of the analgesic effect compared with oxycodone ([1]; mouse tail flick, 0.5-3 h after administration): maintained for a longer period of time; Drug effect compared with oxycodone ([1]; mouse tail flick, same dose (10 mg/kg intragastric)): better drug effect than oxycodone
Fc1ccc(C2(CCN[C@H]3CCc4c(Br)cccc43)CCOC3(CCOCC3)C2)nc1 (stereo partly drawn) [Compound 7-1, (1S)-4-bromo-N-(2-(4-(5-fluoropyridin-2-yl)-1,9-dioxaspiro[5.5]undecan-4-yl)ethyl)-2,3-dihydro-1H-inden-1-amine]	1.69	116	
Fc1ccc(C2(CCN[C@H]3CCc4c(F)cccc43)CCOC3(CCOCC3)C2)nc1 (stereo partly drawn) [Compound 2-1, (1S)-4-fluoro-N-(2-(4-(5-fluoropyridin-2-yl)-1,9-dioxaspiro[5.5]undecan-4-yl)ethyl)-2,3-dihydro-1H-inden-1-amine]	23.5	101	
Clc1cccc2c1CCC2NCCC1(c2ccccn2)CCOC2(CCOCC2)C1 (stereo not shown) [Compound 16, 4-chloro-N-(2-(4-(pyridin-2-yl)-1,9-dioxaspiro[5.5]undecan-4-yl)ethyl)-2,3-dihydro-1H-inden-1-amine]	2.4	102	
Fc1ccc(C2(CCNCc3cccc(Cl)c3)CCOC3(CCOCC3)C2)nc1 (stereo not shown) [Compound 11, N-(3-chlorobenzyl)-2-(4-(5-fluoropyridin-2-yl)-1,9-dioxaspiro[5.5]undecan-4-yl)ethan-1-amine]	7.75	100	
Fc1ccc(C2(CCN[C@H]3CCc4c(Cl)cccc43)CCOC3(CCOCC3)C2)nc1 (stereo partly drawn) [Compound 5-1, (1S)-4-chloro-N-(2-(4-(5-fluoropyridin-2-yl)-1,9-dioxaspiro[5.5]undecan-4-yl)ethyl)-2,3-dihydro-1H-inden-1-amine]	1.33	111	
Fc1ccc(C2(CCN[C@H]3CCc4ccccc43)CCOC3(CCOCC3)C2)nc1 (stereo partly drawn) [Compound 3-1, (1S)-N-(2-(-4-(5-fluoropyridin-2-yl)-1,9-dioxaspiro[5.5]undecan-4-yl)ethyl)-2,3-dihydro-1H-inden-1-amine]	0.79	99.9	
Fc1ccc([C@]2(CCN[C@H]3Cc4cccc(Cl)c4C3)CCOC3(CCOCC3)C2)nc1 [Compound 17-1-1, (S)-4-chloro-N-(2-((R)-4-(5-fluoropyridin-2-yl)-1,9-dioxaspiro[5.5]undecan-4-yl)ethyl)-2,3-dihydro-1H-inden-2-amine]	0.64	102	
